Experimental data published in patent US11267824B2, “Inhibitors of indoleamine 2,3-dioxygenase and/or tryptophan 2,3-dioxygenase” (IDORSIA PHARMACEUTICALS LTD, priority 2017, dated 2022).

Key:
[1] = molecular target: Recombinant full-length human IDO1 (Homo sapiens (Human), UniProt P14902); assay: IDO1 enzymatic assay (IDO inhibitory activity); type: biochemical; conditions: 2 nM enzyme, 5 μM L-tryptophan, pH6.5, 30 min pre-incubation, NFK quantified by LCMS; mean values if measured multiple times; read-out: hIDO activity (IC50 in nM)
Chain of Recombinant full-length human IDO1 (P14902 whole entry): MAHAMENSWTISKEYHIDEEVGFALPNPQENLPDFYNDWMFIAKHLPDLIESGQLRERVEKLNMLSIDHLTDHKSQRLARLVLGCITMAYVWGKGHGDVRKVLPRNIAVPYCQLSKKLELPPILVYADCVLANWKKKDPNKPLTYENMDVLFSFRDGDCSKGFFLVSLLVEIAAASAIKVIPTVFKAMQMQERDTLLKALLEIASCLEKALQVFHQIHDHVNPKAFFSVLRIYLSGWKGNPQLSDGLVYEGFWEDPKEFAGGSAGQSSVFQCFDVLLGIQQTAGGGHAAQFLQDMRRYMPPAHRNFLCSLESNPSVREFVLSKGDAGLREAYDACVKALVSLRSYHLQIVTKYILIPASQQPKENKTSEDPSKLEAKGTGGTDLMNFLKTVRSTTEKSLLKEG
In short: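 N-His-tagged enzyme from E. coli at 2 nM in 37.5 mM phosphate pH6.5 with ascorbate, methylene blue, catalase; compounds 10 μM–0.5 nM, 0.6% DMSO, pre-incubated 30 min RT, then 5 μM L-tryptophan for 30 min RT. NFK quantified by LCMS against d5-tryptophan; IC50 from duplicate four-parameter fit, means where repeated.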

[2] = molecular target: Recombinant human TDO comprising amino acids 19-407 (Homo sapiens (Human), UniProt P48775); assay: TDO2 enzymatic assay (TDO inhibitory activity); type: biochemical; conditions: 15 nM enzyme, 200 μM L-tryptophan, pH7, 30 min pre-incubation, NFK quantified by LCMS; mean values if measured multiple times; read-out: hTDO activity (IC50 in nM)
Chain of Recombinant human TDO comprising amino acids 19-407 (P48775 19-406 limits assumed): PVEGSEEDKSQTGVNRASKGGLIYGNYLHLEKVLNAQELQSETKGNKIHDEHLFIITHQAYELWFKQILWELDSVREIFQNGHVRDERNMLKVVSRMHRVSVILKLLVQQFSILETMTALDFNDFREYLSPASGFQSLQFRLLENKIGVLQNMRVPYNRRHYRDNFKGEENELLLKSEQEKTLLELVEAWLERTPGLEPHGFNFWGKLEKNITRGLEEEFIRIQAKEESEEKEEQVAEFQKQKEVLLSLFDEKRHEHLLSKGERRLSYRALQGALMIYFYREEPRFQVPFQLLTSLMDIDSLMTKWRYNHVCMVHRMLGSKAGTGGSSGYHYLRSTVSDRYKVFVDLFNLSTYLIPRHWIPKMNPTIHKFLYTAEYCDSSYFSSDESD
In short: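 His-tagged enzyme (15 nM, E. coli-expressed) in pH 7 phosphate buffer with ascorbate, catalase, BSA, Tween 20, 0.6% DMSO; 30 min RT pre-incubation with compound (10 μM–0.5 nM), then 200 μM L-tryptophan for 30 min RT. N′-formylkynurenine quantified by LCMS against deuterated tryptophan; IC50 by four-parameter fit, duplicates.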

Row | Structure (SMILES) | IC50 [1] | IC50 [2]
1 | O[C@H](c1c(-c2ccccc2)sc2cncn12)C1CCCCC1 [Example 92a, (S)-Cyclohexyl-(2-phenyl-imidazo[5,1-b]thiazol-3-yl)-methanol] | 242 nM | 171 nM
2 | CCc1sc2cncn2c1[C@@H](O)C1CCCCC1 [Example 96a, (S)-Cyclohexyl-(2-ethyl-imidazo[5,1-b]thiazol-3-yl)-methanol] | 5.32 nM | 20 nM
3 | C=Cc1sc2cncn2c1C(O)CC1CCCCC1 (stereo not drawn) [Example 97, 2-Cyclohexyl-1-(2-vinyl-imidazo[5,1-b]thiazol-3-yl)-ethanol] | 10.5 nM | 62.6 nM
4 | CCc1sc2cncn2c1[C@@H](O)CC1CCCCC1 [Example 100a, (S)-2-Cyclohexyl-1-(2-ethyl-imidazo[5,1-b]thiazol-3-yl)-ethanol] | 7.82 nM | 202 nM
5 | CCc1sc2cncn2c1[C@H](O)CC1CCCCC1 [Example 100b, (R)-2-Cyclohexyl-1-(2-ethyl-imidazo[5,1-b]thiazol-3-yl)-ethanol] | 1190 nM | 9950 nM
6 | OC(CC1CCC2CCCCC2C1)c1c(C2CC2)sc2cncn12 (stereo not drawn) [Example 101, 1-(2-Cyclopropyl-imidazo[5,1-b]thiazol-3-yl)-2-(decahydro-naphthalen-2-yl)-ethanol] | 485 nM | 1790 nM
7 | OC(CC1CCCC(C(F)(F)F)C1)c1c(C2CC2)sc2cncn12 (stereo not drawn) [Example 102, 1-(2-Cyclopropyl-imidazo[5,1-b]thiazol-3-yl)-2-(3-trifluoromethyl-cyclohexyl)-ethanol] | 87.6 nM | 818 nM
8 | OC(c1c(C2CC2)sc2cncn12)C1CCCC(C(F)(F)F)C1 (stereo not drawn) [Example 104, (2-Cyclopropyl-imidazo[5,1-b]thiazol-3-yl)-(3-trifluoromethyl-cyclohexyl)-methanol] | 75.7 nM | 1080 nM
9 | CC1(C)CCCC(CC(O)c2c(C3CC3)sc3cncn23)C1 (stereo not drawn) [Example 106, 1-(2-Cyclopropyl-imidazo[5,1-b]thiazol-3-yl)-2-(3,3-dimethyl-cyclohexyl)-ethanol] | 85.1 nM | 546 nM
10 | Cc1sc2cncn2c1C(O)CC1CCC(c2ccccc2)C1 (stereo not drawn) [Example 107, 1-(2-Methyl-imidazo[5,1-b]thiazol-3-yl)-2-(3-phenyl-cyclopentyl)-ethanol] | 167 nM | 1890 nM
11 | CC1(C)CCC(C(O)c2c(C(F)(F)F)sc3cncn23)C1 (stereo not drawn) [Example 108, (3,3-Dimethyl-cyclopentyl)-(2-trifluoromethyl-imidazo[5,1-b]thiazol-3-yl)-methanol] | 56.7 nM | 922 nM
12 | OC(CC1CCC(c2ccccc2)C1)c1c(C(F)(F)F)sc2cncn12 (stereo not drawn) [Example 112, 2-(3-Phenyl-cyclopentyl)-1-(2-trifluoromethyl-imidazo[5,1-b]thiazol-3-yl)-ethanol] | 666 nM | > 10200 nM
13 | COC1CCCC(CC(O)c2c(C3CC3)sc3cncn23)C1 (stereo not drawn) [Example 114, 1-(2-Cyclopropyl-imidazo[5,1-b]thiazol-3-yl)-2-(3-methoxy-cyclohexyl)-ethanol] | 40.5 nM | 1830 nM
14 | CC1CCC(C(O)c2c(C(F)(F)F)sc3cncn23)C1 (stereo not drawn) [Example 116, (3-Methyl-cyclopentyl)-(2-trifluoromethyl-imidazo[5,1-b]thiazol-3-yl)-methanol] | 45.5 nM | 701 nM
15 | CC1CCCCC1CC(O)c1c(C(F)(F)F)sc2cncn12 (stereo not drawn) [Example 117, 2-(2-Methyl-cyclohexyl)-1-(2-trifluoromethyl-imidazo[5,1-b]thiazol-3-yl)-ethanol] | 165 nM | 2680 nM
16 | CC1CCCC1C(O)c1c(C(F)(F)F)sc2cncn12 (stereo not drawn) [Example 119, (2-Methyl-cyclopentyl)-(2-trifluoromethyl-imidazo[5,1-b]thiazol-3-yl)-methanol] | 191 nM | 187 nM
17 | CC1CC(C)(C)CC1C(O)c1c(C2CC2)sc2cncn12 (stereo not drawn) [Example 120, (2-Cyclopropyl-imidazo[5,1-b]thiazol-3-yl)-(2,4,4-trimethyl-cyclopentyl)-methanol] | 172 nM | 247 nM
18 | CC1(C)CCC(CC(O)c2c(C(F)(F)F)sc3cncn23)C1 (stereo not drawn) [Example 121, 2-(3,3-Dimethyl-cyclopentyl)-1-(2-trifluoromethyl-imidazo[5,1-b]thiazol-3-yl)-ethanol] | 313 nM | 8490 nM
19 | CC1CCCC(CC(O)c2c(C(F)(F)F)sc3cncn23)C1 (stereo not drawn) [Example 122, 2-(3-Methyl-cyclohexyl)-1-(2-trifluoromethyl-imidazo[5,1-b]thiazol-3-yl)-ethanol] | 205 nM | 3810 nM
20 | CCC1CCCC1C(O)c1c(C2CC2)sc2cncn12 (stereo not drawn) [Example 123, (2-Cyclopropyl-imidazo[5,1-b]thiazol-3-yl)-(2-ethyl-cyclopentyl)-methanol] | 29.4 nM | 228 nM
21 | OC(c1c(C2CC2)sc2cncn12)C1CC2CCCC2C1 (stereo not drawn) [Example 133, (2-Cyclopropyl-imidazo[5,1-b]thiazol-3-yl)-(octahydro-pentalen-2-yl)-methanol] | 7.07 nM | 259 nM
22 | OC(CC1CCCC1c1ccccc1)c1c(C2CC2)sc2cncn12 (stereo not drawn) [Example 135, 1-(2-Cyclopropyl-imidazo[5,1-b]thiazol-3-yl)-2-(2-phenyl-cyclopentyl)-ethanol] | 139 nM | 3770 nM
23 | CC(C)C1(C)CCC(C(O)c2c(C3CC3)sc3cncn23)C1 (stereo not drawn) [Example 136, (2-Cyclopropyl-imidazo[5,1-b]thiazol-3-yl)-(3-isopropyl-3-methyl-cyclopentyl)-methanol] | 33.2 nM | 579 nM
24 | CC1(C)CCC(C)(C(O)c2c(C3CC3)sc3cncn23)C1 (stereo not drawn) [Example 139, (2-Cyclopropyl-imidazo[5,1-b]thiazol-3-yl)-(1,3,3-trimethyl-cyclopentyl)-methanol] | 18.7 nM | 151 nM
25 | Cc1sc2cncn2c1[C@@H](O)C1(C)CCCC1 [Example 140a, (S)-(1-Methyl-cyclopentyl)-(2-methyl-imidazo[5,1-b]thiazol-3-yl)-methanol] | 23.9 nM | 15.8 nM
26 | Cc1sc2cncn2c1C(O)C1CCC(C)(C)C1 (stereo not drawn) [Example 141, (3,3-Dimethyl-cyclopentyl)-(2-methyl-imidazo[5,1-b]thiazol-3-yl)-methanol] | 81.2 nM | 412 nM
27 | CC[C@H](C)c1sc2cncn2c1C(O)C1CCCCC1 (stereo partly drawn) [Example 185, [2-((S)-sec-Butyl)-imidazo[5,1-b]thiazol-3-yl]-cyclohexyl-methanol] | 172 nM | 962 nM
